Test results as given in US8129546B2, “Derivatives for modulation of ion channels” (Vertex Pharmaceuticals Incorporated, priority 2005, dated 2012).
pIC50: −log10 of the molar value.

Assays:
[1] = neuropathic pain; cited from earlier work
[2] = system: voltage-gated sodium ion channels (NaV); test: Assays for detecting and measuring NaV inhibition (Table 3 activity); assay type: cell-based; details: NaV subtype and assay format not stated
Experimental: Compounds of the invention are useful as antagonists of voltage-gated sodium ion channels. Antagonist properties of test compounds were assessed as follows. Cells expressing the NaV of interest were placed into microtiter plates. After an incubation period, the cells were stained with fluorescent dyes sensitive to the transmembrane potential. The test compounds were added to the microtiter plate. The cells were stimulated with either a chemical or electrical means to evoke a NaV dependent membrane potential change from unblocked channels, which was detected and measured with trans-membrane potential-sensitive dyes. Antagonists were detected as a decreased membrane potential response to the stimulus. The optical membrane potential assay utilized voltage-sensitive FRET sensors described by Gonzalez and Tsien (See, Gonzalez, J. E. and R. Y. Tsien (1995) “Voltage sensing by fluorescence resonance energy transfer in single cells” Biophys J 69(4): 1272-80, and Gonzalez, J. E. and R. Y. Tsien (1997) “Improved indicators of cell membrane potential that use fluorescence resonance energy transfer” Chem Biol 4(4): 269-77) in combination with instrumentation for measuring fluorescence changes such as the Voltage/Ion Probe Reader (VIPR®) (See, Gonzalez, J. E., K. Oades, et al. (1999) “Cell-based assays and instrumentation for screening ion-channel targets” Drug Discov Today 4(9): 431-439).
VIPR® Optical Membrane Potential Assay Method with Chemical Stimulation
24 hours before the assay on VIPR, CHO cells […] expressing a NaV1.2 type voltage-gated NaV are seeded in 96-well poly-lysine coated plates at 60,000 cells per well. Other subtypes are performed in an analogous mode in a cell line expressing the NaV of interest. • 1) On the day of the assay, medium is aspirated and cells are washed twice with 225 μL of Bath Solution #2 (BS#2). • 2) A 15 μM CC2-DMPE solution is prepared by mixing 5 mM coumarin stock solution with 10% Pluronic 127 1:1 and then dissolving the mix in the appropriate volume of BS#2. • 3) After bath solution is removed from the 96-well plates, the cells are loaded with 80 μL of the CC2-DMPE solution. Plates are incubated in the dark for 30 minutes at room temperature. • 4) While the cells are being stained with coumarin, a […] oxonol solution in BS#2 is prepared. In addition to DiSBAC2(3), this solution should contain 0.75 mM ABSC1 and […] veratridine (prepared from 10 mM EtOH stock, Sigma #V-5754). • 5) After 30 minutes, CC2-DMPE is removed and the cells are washed twice with 225 μL of BS#2. As before, the residual volume should be 40 μL. • 6) Upon removing the bath, the cells are loaded with 80 μL of the DiSBAC2(3) solution, after which test compound, dissolved in DMSO, is added to achieve the desired test concentration to each well from the drug addition plate and mixed thoroughly. The volume in the well should be roughly 121 μL. The cells are then incubated for 20-30 minutes. • 7) Once the incubation is complete, the cells are ready to be assayed on VIPR® with a sodium addback protocol. 120 μL of Bath solution #1 is added to stimulate the NaV dependent depolarization. […] tetracaine was used as an antagonist positive control for block of the NaV channel. Analysis of VIPR® Data:
Data are analyzed and reported as normalized ratios of background-subtracted emission intensities measured in the 460 nm and 580 nm channels. Background intensities are then subtracted from each assay channel. Background intensities are obtained by measuring the emission intensities during the same time periods from identically treated assay wells in which there are no cells. The response as a function of time is then reported as the ratios obtained using the following formula: […]
The data is further reduced by calculating the initial (Ri) and final (Rf) ratios. These are the average ratio values during part or all of the pre-stimulation period, and during sample points during the stimulation period. […]

NCC1(CC(=O)O)CCCCC1 [Gabapentin]
share of patients in whom it works [1]: 60%

CN(C)S(=O)(=O)C1CCN(C(=O)CCn2ccc3cc(Cl)ccc32)CC1 [Compound 7, 1-[3-(5-Chloro-1H-indol-1-yl)propanoyl]-N,N-dimethyl-piperidine-4-sulfonamide]
pIC50 [2]: < 4.70

O=C(COc1ccc(F)c(Cl)c1)N1CCC(S(=O)(=O)N2CCCC2)C1 (centres unmarked) [Compound 18]
pIC50 [2]: < 4.70

O=C(CCn1ccc2cc(Cl)ccc21)N1CCC(S(=O)(=O)NCc2ccccc2)CC1 [Compound 19]
pIC50 [2]: 4.70 to 5.30

O=C(CCn1ccc2cc(Cl)ccc21)N1CCC(S(=O)(=O)Nc2ccccc2)C1 (centres unmarked) [Compound 16]
pIC50 [2]: 4.70 to 5.30

CNS(=O)(=O)C1CCN(C(=O)COc2ccnc3c(C(F)(F)F)cccc23)CC1 [Compound 23]
pIC50 [2]: < 4.70

O=C(COc1ccc(F)c(Cl)c1)N1CCC(S(=O)(=O)NCc2ccccc2)CC1 [Compound 4, N-Benzyl-1-[2-(3-chloro-4-fluoro-phenoxy)acetyl]-piperidine-4-sulfonamide]
pIC50 [2]: 4.70 to 5.30

O=C(COc1ccnc2c(C(F)(F)F)cccc12)N1CCC(S(=O)(=O)NCc2ccccc2)C1 (centres unmarked) [Compound 14]
pIC50 [2]: 4.70 to 5.30

CC(C(=O)N1CCC(S(=O)(=O)Nc2ccccc2)CC1)n1ccc2ccccc21 (centres unmarked) [Compound 3, 1-[2-(1H-Indol-1-yl)propanoyl]-N-phenyl-piperidine-4-sulfonamide]
pIC50 [2]: 4.70 to 5.30

CC(C(=O)N1CCC(S(=O)(=O)N2CCCC2)C1)n1ccc2ccccc21 (centres unmarked) [Compound 21]
pIC50 [2]: < 4.70

CNS(=O)(=O)C1CCN(C(=O)C(C)n2ccc3ccccc32)CC1 (centres unmarked) [Compound 1]
Activity [2]: None

O=C(CCn1ccc2cc(Cl)ccc21)N1CCC(S(=O)(=O)Nc2ccccc2)CC1 [Compound 2, 1-[3-(5-chloro-1H-indol-1-yl)propanoyl]-N-phenyl-piperidine-4-sulfonamide]
pIC50 [2]: 4.70 to 5.30

O=C(COc1ccnc2c(C(F)(F)F)cccc12)N1CCC(S(=O)(=O)NCc2ccccc2)CC1 [Compound 5, N-Benzyl-1-[2-[[8-(trifluoromethyl)-4-quinolyl]oxy]acetyl]-piperidine-4-sulfonamide]
pIC50 [2]: < 4.70

O=C(COc1ccnc2c(C(F)(F)F)cccc12)N1CCC(S(=O)(=O)N2CCCC2)C1 (centres unmarked) [Compound 11, 1-(3-Pyrrolidin-1-ylsulfonylpyrrolidin-1-yl)-2-[[8-(trifluoromethyl)-4-quinoly]oxy]ethanone]
pIC50 [2]: < 4.70

O=C(COc1ccc(F)c(Cl)c1)N1CCC(S(=O)(=O)Nc2ccccc2)C1 (centres unmarked) [Compound 15]
pIC50 [2]: 4.70 to 5.30

O=C(CCn1ccc2cc(Cl)ccc21)N1CCC(S(=O)(=O)N2CCCC2)C1 (centres unmarked) [Compound 10, 3-(5-Chloro-1H-indol-1-yl)-1-(3-pyrrolidin-1-ylsulfonylpyrrolidin-1-yl)-propan-1-one]
pIC50 [2]: 4.70 to 5.30

CC(C(=O)N1CCC(S(=O)(=O)Nc2ccccc2)C1)n1ccc2ccccc21 (centres unmarked) [Compound 12, 1-[2-(1H-Indol-1-yl)propanoyl]-N-phenyl-pyrrolidine-3-sulfonamide]
pIC50 [2]: 4.70 to 5.30

CC(C(=O)N1CCC(S(=O)(=O)NCc2ccccc2)C1)n1ccc2ccccc21 (centres unmarked) [Compound 17]
pIC50 [2]: 4.70 to 5.30

O=C(COc1ccc(F)c(Cl)c1)N1CCC(S(=O)(=O)NCc2ccccc2)C1 (centres unmarked) [Compound 13, N-Benzyl-1-[2-(3-chloro-4-fluoro-phenoxy)acetyl]-pyrrolidine-3-sulfonamide]
pIC50 [2]: 4.70 to 5.30

O=C(COc1ccnc2c(C(F)(F)F)cccc12)N1CCC(S(=O)(=O)N2CCCC2)CC1 [Compound 20]
pIC50 [2]: < 4.70
